Active and inactive are the calls of the source.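 Rule for the calls: active = fitted rise in melting shift crosses a set limit at or below the top valid dose tested; inconclusive = flat fit at mid-level activity, or a poor quality fit; inactive = the rest.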
Each molecule was assayed against Fibroblast growth factor 22 (Homo sapiens) (UniProt Q9HCT0) (assay: binders of human FGF22 protein, dose response, FGF22 synaptogenesis inhibitor project, biophysical, thermal shift, cherry-pick retest (AID 720646)). Conditions: recombinant FGF22 thermal shift, SYPRO orange fluorescence.
Chain of Fibroblast growth factor 22 (Homo sapiens) (Q9HCT0 whole entry, looked up): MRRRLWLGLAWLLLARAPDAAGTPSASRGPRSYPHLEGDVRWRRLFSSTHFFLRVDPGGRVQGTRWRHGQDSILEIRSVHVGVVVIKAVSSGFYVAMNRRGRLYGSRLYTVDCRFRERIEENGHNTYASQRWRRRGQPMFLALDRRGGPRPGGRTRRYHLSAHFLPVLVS

SMILES	AC
O=C(Nc1ccc(S(=O)(=O)N2CCOCC2)cc1)c1ccc(F)cc1	> 38 µM (inactive)
O=C(N/N=C\c1c[nH]c2ccccc12)c1ccc(O)cc1	16.8 µM
NC(=O)c1ccsc1NC(=O)COC(=O)Cc1c[nH]c2ccccc12	27.6 µM
Cc1ccc(NC(=O)c2ccc(OCc3c(C)noc3C)cc2)c(C)c1	34.2 µM
Nc1nnc(CC(=O)N/N=C/c2cc([N+](=O)[O-])cc(Br)c2O)s1	24.7 µM
O=S(=O)(Nc1nnc(C(F)(F)F)s1)c1ccc(Cl)cc1	37.5 µM
O=S1(=O)N=C(N(Cc2cccs2)c2ccc(O)cc2)c2ccccc21	20.4 µM
O=C(Cc1n[nH]c(=O)[nH]c1=O)N/N=C/c1c(O)ccc2ccccc12	> 38 µM (inactive)
CSc1ccc(/C=N/NC(=O)c2ccc3nc[nH]c3c2)cc1	37.7 µM
Cc1onc(-c2ccccc2)c1C(=O)Nc1ncc([N+](=O)[O-])s1	34 µM
COc1ccc(/C=N/Nc2ccc([N+](=O)[O-])cc2)cc1O	36.6 µM
Cc1cc(C(=O)N/N=C/c2c[nH]c3ccccc23)cs1	30.3 µM
C[C@@H]1CN([C@H](C)CO)C(=O)Cc2cc(N(C)C)ccc2O[C@@H]1CN(C)Cc1ccc(Cl)c(Cl)c1	37.3 µM
O=C(N/N=C/c1c[nH]c2ccccc12)c1cccs1	23.4 µM
Cc1cc(C)cc(NC(=O)CN2C(=O)NC(Cc3c[nH]c4ccccc34)C2=O)c1 (centres undefined)	> 38 µM (inactive)
COc1ccc(NC(=O)CCCN2C(=O)CN(C)C2=O)c(OC)c1	> 38 µM (inactive)
CC1([N+](=O)[O-])COP(=O)(NC2CC2)OC1 (centres undefined)	21.5 µM

SMILES	AC
COc1ccc(N2CCN(CCOc3ccc4c(C)cc(=O)oc4c3)CC2)cc1	> 38 µM (inactive)
O=C(N/N=C/c1c[nH]c2ccccc12)c1cccc(Cl)c1	27.9 µM
O=C(O)c1[nH]c2ccc(Br)cc2c1CCN1C(=O)c2cccc([N+](=O)[O-])c2C1=O	> 38 µM (inactive)
CCC(=O)Nc1nc(C)c(-c2csc(Nc3ccccn3)n2)s1	21.6 µM
O=C(CC1SC(=O)NC1=O)Nc1ccc(Cl)cc1 (centres undefined)	33.2 µM
CC(C)c1c(C(=O)N/N=C/c2c[nH]c3ccccc23)nnn1-c1nonc1N	27.4 µM
CC(=O)Nc1cccc(C(=O)N/N=C/c2c[nH]c3ccccc23)c1	13.7 µM
CC1C=NC(S(=O)(=O)N2CC[C@@H]3[C@@H](CO)N(C)c4ccc(-c5ccc(F)cc5)cc4[C@@H]32)=N1 (some centres undefined)	> 38 µM (inactive)
CC1(C(=O)NS(=O)(=O)Cc2cccc(Cl)c2)CCN1C(=O)C1(c2ccc(Cl)cc2)CCC1 (centres undefined)	24.4 µM
N#Cc1ccc(NC(=O)Nc2cccc(C#N)c2)cc1	30.1 µM
Cn1c(=O)c2c(-c3ccccc3)n(-c3cc(Cl)c([N+](=O)[O-])cc3O)cc2n(C)c1=O	28.3 µM
Cc1[nH]c2ccc(C(=O)OCC(=O)Nc3cccc(S(N)(=O)=O)c3)cc2c1C	10.1 µM
CNC[C@H]1Oc2ccc(NC(=O)Cc3cn(C)c4ccccc34)cc2C(=O)N([C@H](C)CO)C[C@H]1C	> 42 µM (inactive)
C[C@@H]1CN([C@@H](C)CO)S(=O)(=O)c2ccc(-c3cccc(C#N)c3)cc2O[C@@H]1CN(C)C(=O)Nc1cc(F)ccc1F	> 38 µM (inactive)
COC(=O)C(C)Oc1cc(OC(C)C(=O)OC)c2c(C)c(Cl)c(=O)oc2c1 (centres undefined)	> 38 µM (inactive)
CCC(CC)CN1CCC(CN2C(=O)C(=O)NC[C@@H]2CC(C)C)CC1	> 38 µM (inactive)
O=C(N[C@H]1C=C[C@H](CC(=O)N2CCCCC2)O[C@H]1CO)c1cccc(F)c1	35.5 µM
